Where a name gives a salt, the structure may show the parent alone.
Target: T1, rat GABAA α2β2γ2 Receptors (Rattus norvegicus, UniProt P23576)
T1 construct: expressed in transfected cells; pIRES Neo2 / Hygro2 / Puro2 vectors
Assay: PatchXpress 7000A automated parallel patch-clamp: potentiation of GABA EC20 current in HEK293 cells
Assay type: cell-based
Conditions: percent increase in mean GABA EC20 current response; HEK293 cells stably expressing rat GABAA α2β2γ2; voltage-clamped at −60 mV
Description: Cell Line Generation and Transient Expression. In order to generate stable clonal lines expressing GABAA configurations containing α2β2γ2 subunits, HEK293 cells were transfected with 2 μg of the subunit, using the Invitrogen Lipofectamine PLUS protocol. The following DNA and vector were used for the stable transfection: α2 subunits in pIRES Neo2, β2 subunit in pIRES Hygro2, and a γ2 subunit in pIRES Puro2. Transfectants were selected with G418, Hygromycin B, and Puromycin antibiotics and cloned by limiting dilution. For transient expression, transfections were performed using the Amaxa transfection protocol and 2 μg DNA of the GABAA receptor subunit using Amaxa transfection protocol. Cells were used for experiments 24-72 hrs post transfection.
PatchXpress® 7000A Automated Parallel Patch-Clamp System. HEK293 cells stably expressing recombinant the rat GABAA/α2β2γ2 configuration were harvested by a single DPBS wash followed by 0.025% Trypsin-EDTA treatment for one minute at room temperature. A 6-ml cell suspension (1.7×10^5 cells/ml) was centrifuged at 500 rpm for 60 s. The cell pellet was gently agitated, suspended in 150 μl extracellular saline buffer, and transferred to a 1.5-ml tube.
After manually placing the AVIVA Biosciences SealChip 16™ in the holder of the PatchXpress®, the SealChip16™ was automatically prepared for application of the cells. Intracellular solution containing (in mM) CsCl, 135; EGTA, 11; MgCl2, 1; HEPES, 10; ATP, 5; GTP, 0.3 (pH 7.3 with CsOH, 290-300 mOsmol) was injected into the bottom of each chamber, and extracellular solution containing (in mM) NaCl, 140; KCl, 4; CaCl2, 1.8; MgCl2, 1; glucose, 10; HEPES, 10; ATP-K2, 5 (pH 7.4 with NaOH 305-310 mOsmol) was perfused into the top of the chambers through a 16-nozzle wash station. Throughout this period, the pressure controller maintained a positive pressure (+10 mmHg) from the intracellular side to keep the hole free of debris. Seal formation was achieved by a ramp increase in negative pressure from 0 to −35 mmHg at a rate of −3.5 mmHg/s every 10 s until a giga ohm seal was obtained and verified for 30 s.
Compounds were prepared from fresh DMSO stock and were transferred to a 96-well disposable glass insert compound plate for placement in the PatchXpress®. A full 10 point concentration-response curve for GABA was obtained for the GABA receptor cell line, from which an EC20 was estimated. Test compounds were assayed for their ability to potentiate the current response by an EC20 concentration of GABA. Each experiment began by two consecutive applications of GABA EC20 alone. Following formation of a giga-ohm seal, patch chambers were perfused with extracellular saline for 60 s to remove excess cells from the well. Cells were then voltage-clamped to −60 mV for the duration of the experiment. After 60 s, 30 μl (10 μl/s over 3 s) of GABA EC20 concentration, which elicited a GABA receptor-mediated inward Cl^− current generally in the order of 200-300 pA in peak amplitude, was added to each chamber. The GABA EC20 concentration was then washed out of the recording chamber after 5 s and washing with extracellular saline was continued for 60 s. After another 60 s, a second GABA EC20 concentration was applied under the same paradigm. […] Following the second GABA EC20 application, the lowest concentration of test compound in the presence of the GABA EC20 concentration was similarly applied. Ascending concentrations of the test compound were applied successively to an individual well in the presence of the GABA EC20 concentration.
Only cells meeting strict predetermined patch-clamp QC parameters, including seal resistance, membrane resistance, and holding current were included in data analysis. GABA current responses in the presence of test compound were measured and expressed as the mean of the initial control GABA EC20 current responses. The peak current amplitude was measured using DataXpress/pCLAMP9 (Axon Instruments). Linear leak subtraction was performed off-line. […]

T1 sequence (P23576 29-451): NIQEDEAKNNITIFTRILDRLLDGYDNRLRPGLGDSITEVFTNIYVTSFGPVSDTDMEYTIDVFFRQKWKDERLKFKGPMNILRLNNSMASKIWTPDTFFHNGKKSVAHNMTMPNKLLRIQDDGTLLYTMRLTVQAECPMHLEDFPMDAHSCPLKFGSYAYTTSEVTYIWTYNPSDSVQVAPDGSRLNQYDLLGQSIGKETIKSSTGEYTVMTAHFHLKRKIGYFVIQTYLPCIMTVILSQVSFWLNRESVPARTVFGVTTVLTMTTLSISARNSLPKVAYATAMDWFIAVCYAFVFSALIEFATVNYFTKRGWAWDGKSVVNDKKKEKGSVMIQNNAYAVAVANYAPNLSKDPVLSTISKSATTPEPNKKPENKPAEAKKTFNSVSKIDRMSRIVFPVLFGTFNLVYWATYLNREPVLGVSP
T1 sequence (P63138 25-474 partner limits assumed): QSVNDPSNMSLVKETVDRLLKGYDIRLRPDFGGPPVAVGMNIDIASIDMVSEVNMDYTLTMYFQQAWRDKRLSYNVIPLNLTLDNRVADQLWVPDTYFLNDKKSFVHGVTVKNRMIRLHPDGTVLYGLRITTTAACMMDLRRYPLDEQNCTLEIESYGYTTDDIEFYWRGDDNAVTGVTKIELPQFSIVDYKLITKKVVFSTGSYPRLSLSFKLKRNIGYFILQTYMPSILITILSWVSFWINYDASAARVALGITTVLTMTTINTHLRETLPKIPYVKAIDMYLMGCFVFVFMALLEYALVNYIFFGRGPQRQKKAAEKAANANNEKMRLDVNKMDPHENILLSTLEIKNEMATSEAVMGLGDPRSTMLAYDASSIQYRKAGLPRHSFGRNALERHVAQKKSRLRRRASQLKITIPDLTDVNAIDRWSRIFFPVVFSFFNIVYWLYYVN
T1 sequence (P18508 39-466 partner): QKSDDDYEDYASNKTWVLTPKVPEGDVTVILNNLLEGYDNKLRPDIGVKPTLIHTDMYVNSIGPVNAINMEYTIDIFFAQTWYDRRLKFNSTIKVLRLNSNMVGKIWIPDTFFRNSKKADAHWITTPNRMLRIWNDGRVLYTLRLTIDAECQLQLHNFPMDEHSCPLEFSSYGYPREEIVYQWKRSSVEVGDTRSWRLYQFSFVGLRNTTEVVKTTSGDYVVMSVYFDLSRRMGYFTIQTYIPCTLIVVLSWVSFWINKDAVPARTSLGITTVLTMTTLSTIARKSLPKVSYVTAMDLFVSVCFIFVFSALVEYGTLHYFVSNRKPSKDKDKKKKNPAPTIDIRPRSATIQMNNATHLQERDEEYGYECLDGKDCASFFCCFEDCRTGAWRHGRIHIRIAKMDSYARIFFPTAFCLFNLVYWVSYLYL

| Compound | GABAA α2 EP EMAX (%) |
| --- | --- |
| C#Cc1ccc2c(c1)C(c1ccccc1)=NCc1c(C(=O)NCCOCCNC(=O)c3ncn4c3CN=C(c3ccccc3)c3cc(C#C)ccc3-4)ncn1-2 [Example 23, N,N′-(2,2′-Oxybis(ethane-2,1-diyl))bis(8-ethynyl-6-phenyl-4H-benzo[f]imidazo[1,5-a][1,4]diazepine-3-carboxamide)] | * (200% < Emax < 300 *) |

Same assay, conditions: percent increase in mean GABA EC20 current response; HEK293 cells stably expressing rat GABAA α2β2γ2; voltage-clamped at −60 mV; read-out: GABAA α2 EP EMAX (%)

| Compound | Emax |
| --- | --- |
| C#Cc1ccc2c(c1)C(c1ccccc1)=NCc1c(C(=O)NCCOC)ncn1-2 [Example 4, 8-Ethynyl-N-(2-methoxyethyl)-6-phenyl-4H-benzo[f]imidazo[1,5-a][1,4]diazepine-3-carboxamide Dihydrochloride] | > 500% |
| C#Cc1ccc2c(c1)C(c1ccccc1)=NCc1c(C(=O)NCC3CCCO3)ncn1-2 (centres unmarked) [Example 36, 8-Ethynyl-6-phenyl-N-((tetrahydrofuran-2-yl)methyl)-4H-benzo[f]imidazo[1,5-a][1,4]diazepine-3-carboxamide, dihydrochloride] | 300 to 400% |
| C#Cc1ccc2c(c1)C(c1ccccc1)=NCc1c(C(N)=O)ncn1-2 [Example 3, 8-Ethynyl-6-phenyl-4H-benzo[f]imidazo[1,5-a][1,4]diazepine-3-carboxamide] | 300 to 400% |
| C#Cc1ccc2c(c1)C(c1ccccc1)=NCc1c(C(=O)NC[C@H](C)O)ncn1-2 [Example 28, 8-Ethynyl-N—((S)-2-hydroxypropyl)-6-phenyl-4H-benzo[f]imidazo[1,5-a][1,4]diazepine-3-carboxamide] | 300 to 400% |
| C#Cc1ccc2c(c1)C(c1ccccc1)=NCc1c(C(=O)NCC)ncn1-2 [Example 2, N-Ethyl-8-ethynyl-6-phenyl-4H-benzo[f]imidazo[1,5-a][1,4]diazepine-3-carboxamide dihydrochloride] | 300 to 400% |
| C#Cc1ccc2c(c1)C(c1ccccc1)=NCc1c(C(=O)NCCOCC)ncn1-2 [Example 12, N-(2-Ethoxyethyl)-8-ethynyl-6-phenyl-4H-benzo[f]imidazo[1,5-a][1,4]diazepine-3-carboxamide dihydrochloride] | 300 to 400% |
| C#Cc1ccc2c(c1)C(c1ccccc1)=NCc1c(C(=O)N(CCOC)CCOC)ncn1-2 [Example 16, 8-Ethynyl-N,N-bis(2-methoxyethyl)-6-phenyl-4H-benzo[f]imidazo[1,5-a][1,4]diazepine-3-carboxamide] | 200 to 300% |
| C#Cc1ccc2c(c1)C(c1ccccc1F)=NCc1c(C(=O)NCCOC)ncn1-2 [Example 34, 8-Ethynyl-6-(2-fluorophenyl)-N-(2-methoxyethyl)-4H-benzo[f]imidazo[1,5-a][1,4]diazepine-3-carboxamide dihydrochloride] | 300 to 400% |
| C#Cc1ccc2c(c1)C(c1ccccc1)=NCc1c(C(=O)NCCN(C)C)ncn1-2 [Example 6, N-(2-(Dimethylamino)ethyl)-8-ethynyl-6-phenyl-4H-benzo[f]imidazo[1,5-a][1,4]diazepine-3-carboxamide] | 300 to 400% |
| C#Cc1ccc2c(c1)C(c1ccccc1)=NCc1c(C(=O)NCCCCCO)ncn1-2 [Example 30, 8-Ethynyl-N-(5-hydroxypentyl)-6-phenyl-4H-benzo[f]imidazo[1,5-a][1,4]diazepine-3-carboxamide dihydrochloride] | 300 to 400% |
| C#Cc1ccc2c(c1)C(c1ccccc1)=NCc1c(C(=O)NC(CC)COC)ncn1-2 (centres unmarked) [Example 13, 8-Ethynyl-N-(1-methoxybutan-2-yl)-6-phenyl-4H-benzo[f]imidazo[1,5-a][1,4]diazepine-3-carboxamide] | 200 to 300% |
| C#Cc1ccc2c(c1)C(c1ccccc1)=NCc1c(C(=O)N3CCN(c4ncccn4)CC3)ncn1-2 [Example 21, (8-Ethynyl-6-phenyl-4H-benzo[f]imidazo[1,5-a][1,4]diazepin-3-yl)(4-(pyrimidin-2-yl)piperazin-1-yl)methanone] | 200 to 300% |
| C#Cc1ccc2c(c1)C(c1ccccc1)=NCc1c(C(=O)NCCCCO)ncn1-2 [Example 31, 8-Ethynyl-N-(4-hydroxybutyl)-6-phenyl-4H-benzo[f]imidazo[1,5-a][1,4]diazepine-3-carboxamide dihydrochloride] | 300 to 400% |
| C#Cc1ccc2c(c1)C(c1ccccc1)=NCc1c(C(=O)NC3CC3)ncn1-2 [Example 10, N-Cyclopropyl-8-ethynyl-6-phenyl-4H-benzo[f]imidazo[1,5-a][1,4]diazepine-3-carboxamide] | > 500% |
| C#Cc1ccc2c(c1)C(c1ccccc1)=NCc1c(C(=O)NCCO)ncn1-2 [Example 5, 8-Ethynyl-N-(2-hydroxyethyl)-6-phenyl-4H-benzo[f]imidazo[1,5-a][1,4]diazepine-3-carboxamide] | 400 to 500% |
| C#Cc1ccc2c(c1)C(c1ccccc1)=NCc1c(C(=O)NCCOC(C)C)ncn1-2 [Example 20, 8-Ethynyl-N-(2-isopropoxyethyl)-6-phenyl-4H-benzo[f]imidazo[1,5-a][1,4]diazepine-3-carboxamide] | 400 to 500% |
| C#Cc1ccc2c(c1)C(c1ccccn1)=NCc1c(C(=O)NCCOC)ncn1-2 [Example 37, 8-Ethynyl-N-(2-methoxyethyl)-6-(pyridin-2-yl)-4H-benzo[f]imidazo[1,5-a][1,4]diazepine-3-carboxamide] | 200 to 300% |
| C#Cc1ccc2c(c1)C(c1ccccc1)=NCc1c(C(=O)NCC(=O)O)ncn1-2 [Example 33, 2-(8-Ethynyl-6-phenyl-4H-benzo[f]imidazo[1,5-a][1,4]diazepine-3-carboxamido)acetic acid] | 400 to 500% |
| C#Cc1ccc2c(c1)C(c1ccccc1)=NCc1c(C(=O)N3CCN(C)CC3)ncn1-2 [Example 8, (8-Ethynyl-6-phenyl-4H-benzo[f]imidazo[1,5-a][1,4]diazepin-3-yl)(4-methylpiperazin-1-yl)methanone] | 300 to 400% |
| C#Cc1ccc2c(c1)C(c1ccccc1)=NCc1c(C(=O)NCC(O)CC)ncn1-2 (centres unmarked) [Example 26, 8-Ethynyl-N-(2-hydroxybutyl)-6-phenyl-4H-benzo[f]imidazo[1,5-a][1,4]diazepine-3-carboxamide] | 200 to 300% |
| C#Cc1ccc2c(c1)C(c1ccccc1)=NCc1c(C(=O)NC(C)COC)ncn1-2 (centres unmarked) [Example 17, 8-Ethynyl-N-(1-methoxypropan-2-yl)-6-phenyl-4H-benzo[f]imidazo[1,5-a][1,4]diazepine-3-carboxamide] | 200 to 300% |
| C#Cc1ccc2c(c1)C(c1ccccc1)=NCc1c(C(=O)NCCOCCC)ncn1-2 [Example 19, 8-Ethynyl-6-phenyl-N-(2-propoxyethyl)-4H-benzo[f]imidazo[1,5-a][1,4]diazepine-3-carboxamide] | 400 to 500% |
| C#Cc1ccc2c(c1)C(c1ccccc1)=NCc1c(C(=O)NCCCO)ncn1-2 [Example 29, 8-Ethynyl-N-(3-hydroxypropyl)-6-phenyl-4H-benzo[f]imidazo[1,5-a][1,4]diazepine-3-carboxamide dihydrochloride] | 300 to 400% |
| C#Cc1ccc2c(c1)C(c1ccccc1)=NCc1c(C(=O)NC(COC)COC)ncn1-2 [Example 15, N-(1,3-Dimethoxypropan-2-yl)-8-ethynyl-6-phenyl-4H-benzo[f]imidazo[1,5-a][1,4]diazepine-3-carboxamide] | 200 to 300% |
| C#Cc1ccc2c(c1)C(c1ccccc1)=NCc1c(C(=O)NC[C@@H](C)O)ncn1-2 [Example 27, 8-Ethynyl-N—((R)-2-hydroxypropyl)-6-phenyl-4H-benzo[f]imidazo[1,5-a][1,4]diazepine-3-carboxamide] | 200 to 300% |
